Patent publication US20190185479A1, “BICYCLIC NITROGENATED HETEROCYCLIC COMPOUND” (MITSUBISHI TANABE PHARMA CORPORATION, priority 2016, published 2019)

Each molecule was assayed against T1, Human PDE7B (hPDE7B) (Homo sapiens, UniProt Q9NP56) (assay: Measurement of PDE7 inhibitory activity (Experimental Example 1; residual cAMP, LANCE Ultra cAMP TR-FRET)). Conditions: cAMP 3 nmol/L, room temperature 60 minutes.
T1 construct: made in house; host or cells: COS-7 cells
Format: biochemical
Method: Human PDE7B (hPDE7B) was isolated from COS-7 cells transfected with plasmids encoding hPDE7B according to the method described in a reference, Biochemical and Biophysical Research Communication, 271, p. 575-583 (2000). The resulting enzyme solution was used in the PDE assay.
PDE7 inhibitory assay was carried out by reacting the mixture of a compound, hPDE7B, and cAMP, and measuring the residual cAMP by a detection method using LANCE (registered trademark) Ultra cAMP Detection Kit (ParkinElmer). The compound was dissolved in DMSO, and diluted so that the concentration would become 50 times of the final concentration. The hPDE7B and cAMP were diluted with an assay buffer (50 mmol/L Tris-HCl, 1 mmol/L MgCl2, 0.1% BSA, 0.5 mmol/L DTT, pH7.5) so that the hPDE7B would have an appropriate enzyme activity and the concentration of cAMP would become 6 nmol/L. To a 96 well plate were added the compound (2 μL) (DMSO final concentration: 2%), hPDE7B (48 μL), and cAMP (50 μL) (concentration at the reaction: 3 nmol/L), and the resulting mixture was reacted at room temperature for 60 minutes. The reaction solution (20 μL) was subjected to a TR-FRET method according to the protocol specified by the kit to measure the concentration of the residual cAMP. In the assay, to a tracer solution specified by the kit was added 0.5 mmol/L of 3-isobutyl-1-methylxanthine (IBMX, nonselective PDE inhibitor) in order to stop the PDE enzyme reaction after the completion of reaction until the measurement.
The reaction without a compound was defined as “0% inhibition”, the reaction without hPDE7B was defined as “100% inhibition”, and the inhibition rate of the compound was calculated by the following equation.
Inhibition rate of compound (%)={(Residual cAMP concentration at the addition of compound−Residual cAMP concentration in 0% inhibition)/(Residual cAMP concentration in 100% inhibition−Residual cAMP concentration in 0% inhibition)}×100

T1 sequence (Q9NP56 whole entry): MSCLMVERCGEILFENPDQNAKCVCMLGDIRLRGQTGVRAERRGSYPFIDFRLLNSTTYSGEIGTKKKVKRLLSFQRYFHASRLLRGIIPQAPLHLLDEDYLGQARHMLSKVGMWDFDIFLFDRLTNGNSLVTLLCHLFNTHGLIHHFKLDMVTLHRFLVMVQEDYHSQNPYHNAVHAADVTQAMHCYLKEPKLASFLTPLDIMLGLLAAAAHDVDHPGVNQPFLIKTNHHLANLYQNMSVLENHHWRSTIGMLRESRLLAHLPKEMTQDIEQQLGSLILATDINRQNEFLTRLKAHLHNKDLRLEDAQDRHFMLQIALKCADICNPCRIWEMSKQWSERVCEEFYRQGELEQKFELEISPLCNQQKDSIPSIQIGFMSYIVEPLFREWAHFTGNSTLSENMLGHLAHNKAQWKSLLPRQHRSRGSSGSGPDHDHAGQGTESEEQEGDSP

Row | Compound | IC50 [nM]
1 | CC1CCC(C(F)(F)F)CC1c1nnc2c(N)nccn12 (single isomer, unassigned) [Example 173, 3-[2-methyl-5-(trifluoromethyl)cyclohexyl][1,2,4]triazolo[4,3-a]pyrazin-8-amine] | > 1000
2 | Nc1ncnc2c1nnn2C1CCCc2ccccc21 (stereo not drawn) [Example 33] | 520
3 | Nc1nccn2c(N3CCCCCCC3)nnc12 [Example 30] | 390
4 | Nc1ncnc2c1nnn2[C@H]1CC[C@H](C(F)(F)F)CC1 [Example 103] | 450
5 | CC1CCC(F)(F)CC1c1nnc2c(N)nccn12 (single isomer, unassigned) [Example 176, 3-(cis-5,5-difluoro-2-methylcyclohexyl) [1,2,4]triazolo[4,3-a]pyrazin-8-amine] | > 1000
6 | CC1CCCN(c2nnc3c(N)nccn23)C1C (single isomer, unassigned) [Example 56, 3-(2,3-dimethylpiperidin-1-yl) [1,2,4]triazolo[4,3-a]pyrazin-8-amine] | 190
7 | Nc1ncnc2c1nnn2[C@@H]1CCCC(F)(F)C1 [Example 88] | 840
8 | CCC1CCN(c2nnc3c(N)nccn23)CC1 [Example 50] | 520
9 | Nc1nccn2c(N3CCCC4(CCCC4)C3)nnc12 [Example 45] | 210
10 | Nc1ncnc2c1nnn2-c1c(F)cccc1F [Example 14] | 560
11 | Nc1nccn2c(N3CCCCC3c3ccccc3)nnc12 (stereo not drawn) [Example 41] | 290
12 | Nc1nccn2c(CC3CCCCC3)nnc12 [Example 165] | 360
13 | CC1CC(c2nnc3c(N)nccn23)CC(F)(F)C1 (single isomer, unassigned) [Example 217, 3-(trans-3,3-difluoro-5-methylcyclohexyl[1,2,4]triazolo[4,3-a]pyrazin-8-amine] | 100
14 | CC1CCC(F)(F)CC1c1nnc2c(N)nccn12 (racemic) [Example 152, 3-(cis-5,5-difluoro-2-methylcyclohexyl) [1,2,4]triazolo[4,3-a]pyrazin-8-amine] | < 10
15 | CC1CCCC(n2nnc3c(N)ncnc32)C1 (single isomer, unassigned) [Example 197, 3-(cis-3-methylcyclohexyl)-3H-[1,2,3]triazolo[4,5-d]pyrimidin-7-amine] | 340
16 | CCCC1CCCCN1c1nnc2c(N)nccn12 (racemic) [Example 79, 3-(2-propylpiperidin-1-yl)-[1,2,4]triazolo[4,3-a]pyrazin-8-amine] | 260
17 | Nc1ncnc2c1nnn2[C@H]1CCC[C@H](C(F)(F)F)C1 (relative stereo) [Example 86, 3-[trans-3-(trifluoromethyl)cyclohexyl]-3H-[1,2,3]triazolo[4,5-d]pyrimidin-7-amine] | 360
18 | Nc1nccn2c(C3CCC(F)(F)CC3)nnc12 [Example 150] | 130

Row | Compound | IC50 [nM]
19 | Nc1nccn2c(N3C4CCC3CC4)nnc12 [Example 66] | 360
20 | CC1CCCCC1c1nnc2c(N)ncnn12 (single isomer, unassigned) [Example 239, 3-(cis-2-methylcyclohexyl) [1,2,4]triazolo[3,4-f][1,2,4]triazin-8-amine] | 110
21 | CC1(C)CCCN(c2nnc3c(N)ncc(-c4ccccc4)n23)C1 [Example 81] | 160
22 | CC1CCN(c2nnc3c(N)nccn23)CC1C (mixture of isomers) [Example 55, 3-(3,4-dimethylpiperidin-1-yl) [1,2,4]triazolo[4,3-a]pyrazin-8-amine] | 30
23 | CC1CCCCC1n1nnc2c(N)ncnc21 (racemic) [Example 1, 3-(trans-2-methylcyclohexyl)-3H-[1,2,3]triazolo[4,5-d]pyrimidin-7-amine] | 80
24 | Nc1nccn2c(N3CCC4(CC3)CC4)nnc12 [Example 78] | 140
25 | Nc1nccn2c(C3CCCC(C(F)(F)F)C3)nnc12 (stereo not drawn) [Example 147] | 700
26 | C[C@]1(O)CC[C@@H](n2nnc3c(N)ncnc32)CC1 [Example 9] | 890
27 | Nc1nccn2c(C3CCC3)nnc12 [Example 18] | 460
28 | CC1CCC(C(F)(F)F)CC1c1nnc2c(N)nccn12 (racemic) [Example 151, 3-[2-methyl-5-(trifluoromethyl)cyclohexyl][1,2,4]triazolo[4,3-a]pyrazin-8-amine] | 10
29 | Nc1nccn2c(N3CCCC(C(F)(F)F)C3)nnc12 (single isomer, unassigned) [Example 225] | 540
30 | Nc1nccn2c(C3CCCC4(CC4)C3)nnc12 (single isomer, unassigned) [Example 209, 3-(spiro[2,5]oct-5-yl) [1,2,4]triazolo[4,3-a]pyrazin-8-amine] | 130
31 | Nc1nccn2c(C3CCCCN3c3ncccn3)nnc12 (racemic) [Example 250, 3-(1-(pyrimidin-2-yl)piperidin-2-yl)-[1,2,4]triazolo[4,3-a]pyrazin-8-amine] | 180
32 | C[C@H]1CCCCN1c1nnc2c(N)nccn12 [Example 21, 3-(2-methylpiperidin-1-yl) [1,2,4]triazolo[4,3-a]pyrazin-8-amine] | 90
33 | CC1CCC(C)N(c2nnc3c(N)nccn23)C1 (racemic) [Example 58, 3-(2,5-dimethylpiperidin-1-yl) [1,2,4]triazolo[4,3-a]pyrazin-8-amine] | 20
34 | Nc1nccn2c([C@@H]3CCCC(F)(F)C3)nnc12 [Example 213, 3-(3,3-difluorocyclohexyl) [1,2,4]triazolo[4,3-a]pyrazin-8-amine] | 330
35 | Nc1ncnc2c1nnn2-c1cccc(OCc2ccccc2)c1 [Example 139, 3-[3-(benzyloxy)phenyl]-3H-[1,2,3]triazolo[4,5-d]pyrimidin-7-amine] | 90
36 | Nc1ncnc2c1nnn2C1CCC1 [Example 35] | 200

Continued, values first:

Row | IC50 [nM] | Compound
37 | 320 | Nc1nccn2c(C3CCCc4ccccc43)nnc12 (racemic) [Example 17, 3-(1,2,3,4-tetrahydronaphthalen-1-yl)-[1,2,4]triazolo[4,3-a]pyrazin-8-amine]
38 | 490 | Nc1ncnc2c1nnn2-c1cccc(C(F)(F)F)c1 [Example 130]
39 | 480 | Nc1nccn2c(N3C[C@H]4C[C@H]4C3)nnc12 [Example 31]
40 | < 10 | CC1CCC(C)N(c2nnc3c(N)ncc(C#N)n23)C1 (racemic) [Example 60, 8-amino-3-(2,5-dimethylpiperidin-1-yl) [1,2,4]triazolo[4,3-a]pyrazine-5-carbonitrile]
41 | 340 | Nc1ncnc2c1nnn2[C@H]1CCCN(Cc2ccccc2)C1 [Example 138, 3-[(3S)-1-benzylpiperidin-3-yl]-3H-[1,2,3]triazolo[4,5-d]pyrimidin-7-amine]
42 | 420 | COC1CCCC(n2nnc3c(N)ncnc32)C1 (stereo not drawn) [Example 123]
43 | 740 | CN1CCCCC1c1nnc2c(N)nccn12 (racemic) [Example 249, 3-(1-methylpiperidin-2-yl)-[1,2,4]triazolo[4,3-a]pyrazin-8-amine]
44 | 850 | Nc1ncnn2c(C3CCCC(C(F)(F)F)C3)nnc12 (single isomer, unassigned) [Example 245, 3-[cis-3-(trifluoromethyl)cyclohexyl][1,2,4]triazolo[3,4-f][1,2,4]triazin-8-amine]
45 | 190 | CC1CC(C)CN(c2nnc3c(N)nccn23)C1 (single isomer, unassigned) [Example 227, 3-[trans-3,5-dimethylpiperidin-1-yl][1,2,4]triazolo[4,3-a]pyrazin-8-amine]
46 | 220 | Nc1nccn2c([C@@H]3[C@H]4C=CC[C@H]43)nnc12 (relative stereo) [Example 163, 3-[(1S*,5R*,6S*)-bicyclo[3.1.0]hex-2-en-6-yl][1,2,4]triazolo[4,3-a]pyrazin-8-amine]
47 | 490 | CC(C)C1CCCCN1c1nnc2c(N)nccn12 (stereo not drawn) [Example 37]
48 | 240 | CC1CCC(C)N(c2nnc3c(N)nccn23)C1 (racemic) [Example 59, 3-(2,5-dimethylpiperidin-1-yl) [1,2,4]triazolo[4,3-a]pyrazin-8-amine]
49 | 330 | CC(C)[C@H]1CC[C@H](C)[C@H](n2nnc3c(N)ncnc32)C1 [Example 134, 3-[(1R,2S,5S)-2-methyl-5-(propan-2-yl)cyclohexyl]-3H-[1,2,3]triazolo[4,5-d]pyrimidin-7-amine]
50 | 10 | CC1(C)CCCC(c2nnc3c(N)nccn23)C1 (racemic) [Example 144, 3-(3,3-dimethylcyclohexyl) [1,2,4]triazolo[4,3-a]pyrazin-8-amine]
51 | 220 | Nc1nccn2c(N3CCCCC3C(F)(F)F)nnc12 (stereo not drawn) [Example 39]
52 | 320 | CO[C@H]1CCCC[C@H]1n1nnc2c(N)ncnc21 (racemic) [Example 111, 3-[cis-2-methoxycyclohexyl]-3H-[1,2,3]triazolo[4,5-d]pyrimidin-7-amine]

Same assay, conditions: compound at 1 μmol/L

Row | inhibition at 1 µM [%] | Compound
53 | 3 | CC1CCC(C(F)(F)F)CC1c1nnc2c(N)nccn12 (single isomer, unassigned) [Example 173, 3-[2-methyl-5-(trifluoromethyl)cyclohexyl][1,2,4]triazolo[4,3-a]pyrazin-8-amine]
54 | 28 | CC1CCC(F)(F)CC1c1nnc2c(N)nccn12 (single isomer, unassigned) [Example 176, 3-(cis-5,5-difluoro-2-methylcyclohexyl) [1,2,4]triazolo[4,3-a]pyrazin-8-amine]
